Measurements as given in article PMC4703110 (Journal of chemical information and modeling, 2015).

Molecular target: human μ-opioid receptor (Homo sapiens, UniProt P35372)
Assay type: cell-based
Conditions: read-out: EC50, μM (PAM mode)

human μ-opioid receptor, sequence (P35372 whole entry): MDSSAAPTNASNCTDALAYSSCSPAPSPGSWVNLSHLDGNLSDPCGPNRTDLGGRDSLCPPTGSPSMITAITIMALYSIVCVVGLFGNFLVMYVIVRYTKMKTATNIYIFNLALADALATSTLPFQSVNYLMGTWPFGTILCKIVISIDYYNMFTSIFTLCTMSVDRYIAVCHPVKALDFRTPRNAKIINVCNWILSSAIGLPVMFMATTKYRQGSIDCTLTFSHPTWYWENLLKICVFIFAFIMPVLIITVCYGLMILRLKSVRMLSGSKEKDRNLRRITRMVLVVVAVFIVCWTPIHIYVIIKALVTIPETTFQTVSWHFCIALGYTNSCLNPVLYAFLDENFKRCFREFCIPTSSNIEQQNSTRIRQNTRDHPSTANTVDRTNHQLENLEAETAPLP

SMILES: COc1ccc(C2SCCN2S(=O)(=O)c2ccc(Cl)cc2)cc1Br (stereo not shown) [BMS-986122]
- EC50: 16.2 µM
